Experiments:
hA1AR [1] = target: T1, hA1AR (Homo sapiens, UniProt P30542); details: read-out: Affinity Ki, A1; CHO cells expressing hA1AR; ref [6], [7], and [12]; cited from earlier work
T1 sequence (P30542 1-326): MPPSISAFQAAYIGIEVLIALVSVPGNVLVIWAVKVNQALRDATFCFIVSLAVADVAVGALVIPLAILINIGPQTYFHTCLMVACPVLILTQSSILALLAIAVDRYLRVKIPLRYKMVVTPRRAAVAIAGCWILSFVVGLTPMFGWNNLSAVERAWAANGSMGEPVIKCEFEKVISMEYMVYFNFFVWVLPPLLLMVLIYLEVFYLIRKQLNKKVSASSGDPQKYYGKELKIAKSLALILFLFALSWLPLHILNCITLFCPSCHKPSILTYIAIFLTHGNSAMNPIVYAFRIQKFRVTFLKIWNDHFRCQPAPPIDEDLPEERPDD

hA3AR = target: T2, hA3AR (Homo sapiens, UniProt P0DMS8); details: read-out: Affinity Ki, A3; CHO cells expressing hA3AR; ref [6], [7], and [12]; cited from earlier work
T2 sequence (P0DMS8 1-318): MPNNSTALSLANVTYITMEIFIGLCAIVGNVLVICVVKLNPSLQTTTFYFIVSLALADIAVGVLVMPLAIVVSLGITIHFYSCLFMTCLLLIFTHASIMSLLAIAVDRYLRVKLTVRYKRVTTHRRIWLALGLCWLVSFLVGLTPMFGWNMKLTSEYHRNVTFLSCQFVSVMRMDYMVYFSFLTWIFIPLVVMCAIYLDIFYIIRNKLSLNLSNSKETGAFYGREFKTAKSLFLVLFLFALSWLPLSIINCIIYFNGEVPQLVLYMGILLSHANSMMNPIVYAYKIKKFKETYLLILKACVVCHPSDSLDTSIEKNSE

hA1AR [2] = target: T1, hA1AR; format: cell-based; details: compared to standard full agonist CPA / NECA

Row | SMILES | Ki (hA1AR [1]) | Ki (hA3AR) | Agonist character at A1AR in cyclic AMP assay (hA1AR [2])
1 | CNC(=O)[C@@]12C[C@@H]1[C@@H](n1cnc3c(NCc4cccc(Cl)c4)nc(Cl)nc31)[C@H](O)[C@@H]2O [Compound 1, (1′S,2′R,3′S,4′R,5′S)-4′-{2-chloro-6-[(3-chlorophenylmethyl)amino]purin-9-yl}-1-(methylaminocarbonyl)bicyclo[3.1.0]hexane-2,3-diol] | 260 ± 60 nM | – | –
2 | CNC(=O)[C@@]12C[C@@H]1[C@@H](n1cnc3c(NC4CCCC4)nc(Cl)nc31)[C@H](O)[C@@H]2O [Compound 2, (1′S,2′R,3′S,4′R,5′S)-4-(2-chloro-6-(cyclopentylamino)-9H-purin-9-yl)-2,3-dihydroxy-N-methylbicyclo[3.1.0]hexane-1-carboxamide] | 18.3 ± 6.3 nM | 13.1 ± 5.1 nM | –
3 | O[C@@H]1[C@H](O)[C@H]2C[C@@H]2[C@H]1n1cnc2c(NCc3cccc(I)c3)nc(Cl)nc21 [Compound 5, (1′S,2′R,3′S,4′R,5′S)-4′-[2-chloro-6-(3-iodobenzylamino)-purine]-2′,3′-O-dihydroxybicyclo-[3.1.0]hexane] | – | 1.44 ± 0.6 nM | –
4 | O[C@@H]1[C@H](O)[C@@H]2C[C@@H]2[C@H]1n1cnc2c(NC(C3CC3)C3CC3)nc(Cl)nc21 [Compound 21] | – | – | full agonism
5 | CCNC(=O)[C@H]1O[C@@H](n2cnc3c(N)ncnc32)[C@H](O)[C@@H]1O [NECA, 5′-N-ethylcarboxamidoadenosine] | – | – | full agonist

— PMC3156476 (ACS medicinal chemistry letters, 2011)
